From patent publication US12662513B2, “Peptidic modulators of quorum sensing in Staphylococcus epidermidis” (priority 2016, dated 2026)
“Also recorded” adds a separate entry of the source. Where two headings read alike, the source gives them in different places. Bridge positions count the residues as written; N and C are the ends. Square brackets hold non-standard residues; d marks the D form. Ends that are not written are not given here. Peptide text beside a SMILES is read from it.

Assays:
AgrC-II = conditions: for IC50 against AgrC-II, in words: dose response antagonism assay, FIGS. 3A/3B; for Activity toward Group-II at lower concentration, in words: single concentration 100 nM (or 1 μM); for Mode/strength of activity toward AgrC-II (Group II), in words: dose response; for potency estimated from few doses: single replicate dose response, Table 3
Source text: (§1) However, the biological significance of this agr interference remains unclear, although it has been hypothesized to potentially play a role in competition between different groups in a mixed bacteria milieu (18). […] To this end, the AIP analogs discussed above were screened in GFP reporter strains of Groups-II and -III S. epidermidis to complement the Group-I S. epidermidis data in Tables 1 and 2 (see Methods; FIGS. 7A and 7B).
(§2) Biological reagents, strains, and general methods. All standard reagents were purchased from commercial sources and used according to enclosed instructions. The S. epidermidis fluorescence reporter strains AH3408 (Group-I), AH3567 (Group-II), and AH3409 (Group-III) were cultured in Tryptic Soy Broth (TSB, from Sigma) augmented with 10 μg/mL of erythromycin (36). The S. epidermidis wild-type strain RP62A (Group-I) was cultured in TSB (from Sigma or EMD Millipore). The S. aureus fluorescence reporter strains AH1677 (Group-I), AH430 (Group-II), AH1747 (Group-III), and AH1872 (Group-IV) were cultured in Brain Heart Infusion (BHI, from Teknova) augmented with 10 μg/mL of chloramphenicol (65). All cultures were grown at 37° C. with shaking (200 rpm) unless noted otherwise. Absorbance and fluorescence measurements were obtained using a Biotek Synergy 2 microplate reader operating Gen5 data analysis software. IC50 values and EC50 values were determined from sigmoidal curve fits using GraphPad Prism software (v. 6.0).
(§3) Fluorescence reporter assay protocol. […] Each peptide solution was tested in triplicate. […] Plates were then incubated at 37° C. for 24 h. Fluorescence (EX 500 nm/EM 540 nm) and OD600 of each well was measured using a plate reader, and the fluorescence values were normalized to the DMSO control.
(§4) The remaining steps of the fluorescence assay were the same as above.

AgrC-III = conditions: for IC50 against AgrC-III, in words: dose response antagonism assay, FIGS. 3A/3B; for Activity toward Group-III at lower concentration, in words: single concentration 100 nM (or 1 μM); for Activity against Group-III, in words: single concentration 10 μM
Source text: as §1, §2, §3, §4

[1] = system: agr system of S. aureus Group-III; test: Fluorescence (GFP) reporter strain assay, S. aureus Group-III; assay type: cell-based; conditions: 100 nM unless noted
Source text: (§5) Similar to the cross-group inhibition observed between different agr groups of the same species, this cross-species inhibitory effect has no known biological role, but is hypothesized to provide a competitive advantage on a host (18, 46). Thus, AIP analogs described herein were examined to identify potential species-specific inhibitors that target either S. epidermidis Group-I or S. aureus Groups-I-IV.
as §2, with “The S. epidermidis wild-type strain RP62A (Group-I) was cultured in TSB (from Sigma or EMD Millipore).” left out, “All cultures were grown at 37° C. with shaking (200 rpm) unless noted otherwise.” left out
(§6) Fluorescence reporter assay protocol. […]
as §4

AgrC-I receptor [2] = target: T1, AgrC-I receptor (Staphylococcus epidermidis, UniProt Q5HMY3); test: cell-based; assay type: cell-based, S. epidermidis; conditions: for Activity toward Group-I at lower concentration, in words: single concentration 100 nM (or 1 μM); for Mode/strength of activity toward AgrC-I (Group I), in words: dose response
Experimental: The initial set of 14 analogs (listed in Table 1) was synthesized using solid-phase peptide chemistry and purified to homogeneity using previously established HPLC methods (59). Each analog was tested for its ability to modulate the activity of the AgrC-I receptor using a wild-type S. epidermidis Group-I fluorescence reporter strain. This strain contained a reporter plasmid encoding a gfp gene fused to the P3 promoter found upstream of RNAIII (36).
as §2, §3, §4

[3] = system: S. epidermidis Group-I RP62A biofilm; conditions: for IC50: read-out: IC50 of biofilm growth inhibition, 24 h static, CV staining
Experimental: as §2
Crystal violet biofilm assay protocol. […] Each solution was tested in triplicate.

AgrC-I receptor [4] = target: T1, AgrC-I receptor; assay type: cell-based, S. epidermidis; conditions: single replicate dose response, Table 3
[5] = system: AgrC I-IV receptors in S. aureus Groups-I-IV; test: Fluorescence (GFP) reporter strain assays, S. aureus Groups-I-IV; assay type: cell-based; conditions: 100 nM unless noted
Source text: as §5
as §2, with “The S. epidermidis wild-type strain RP62A (Group-I) was cultured in TSB (from Sigma or EMD Millipore).” left out, “All cultures were grown at 37° C. with shaking (200 rpm) unless noted otherwise.” left out
as §6, §4

[6] = read-out: AgrC-II: IC50 (estimated)
[7] = read-out: AgrC-I: IC50 (estimated)
[8] = read-out: AgrC-I: EC50 (estimated)
[9] = read-out: AgrC-II: EC50 (estimated)

T1 sequence (Q5HMY3 entry or part of it): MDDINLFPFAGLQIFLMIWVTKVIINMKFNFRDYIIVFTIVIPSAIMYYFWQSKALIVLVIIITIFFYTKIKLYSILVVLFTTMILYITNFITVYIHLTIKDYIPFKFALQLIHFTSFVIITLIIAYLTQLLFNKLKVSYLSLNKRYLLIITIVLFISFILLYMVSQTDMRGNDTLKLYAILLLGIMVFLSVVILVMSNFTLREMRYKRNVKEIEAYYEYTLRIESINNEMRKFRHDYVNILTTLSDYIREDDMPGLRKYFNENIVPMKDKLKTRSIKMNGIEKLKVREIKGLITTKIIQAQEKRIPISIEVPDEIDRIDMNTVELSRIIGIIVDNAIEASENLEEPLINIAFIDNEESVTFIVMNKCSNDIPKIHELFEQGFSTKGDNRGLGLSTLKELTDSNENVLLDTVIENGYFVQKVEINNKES

C[C@H](N)C(=O)N[C@@H](CO)C(=O)N[C@@H](C)C(=O)N[C@H]1CSC(=O)[C@H](Cc2ccccc2)NC(=O)[C@H](Cc2ccc(O)cc2)NC(=O)[C@H](C)NC(=O)[C@H](C)NC1=O [AIP-I D1AS6AV3A, A-S-A-(C-A-A-Y-F)] (H-ASACAAYF; thioester 4-C)
IC50 against AgrC-II, in words (AgrC-II): subnanomolar to low nanomolar range | Activity toward Group-II at lower concentration, in words (AgrC-II): strongly inhibited | IC50 against AgrC-III, in words (AgrC-III): subnanomolar to low nanomolar range | Activity toward Group-III at lower concentration, in words (AgrC-III): strongly inhibited

CC(C)C[C@@H]1NC(=O)[C@H](Cc2ccc(O)cc2)NC(=O)[C@H](CC(N)=O)NC(=O)[C@H](CO)NC(=O)[C@@H](NC(=O)[C@@H]2CCCN2C(=O)[C@H](CC(N)=O)NC(=O)[C@H](Cc2ccc(O)cc2)NC(=O)[C@@H](N)CCCCN)CSC1=O [AIP-II 9aa, K-Y-N-P-(C-S-N-Y-L)] (H-KYNPCSNYL; thioester 5-C)
Inhibitory activity in S. aureus Group-III, in words [1]: weak inhibitory activity | Activity toward Group-II at lower concentration, in words (AgrC-II): highly active agonist | Activity toward Group-III at lower concentration, in words (AgrC-III): inactive | Activity toward Group-I at lower concentration, in words (AgrC-I receptor [2]): inhibited; also recorded: largely an inhibitor specific to S. epidermidis Group-I

CC(C)[C@H](NC(=O)[C@H](CO)NC(=O)[C@H](C)N)C(=O)N[C@H]1CSC(=O)[C@H](Cc2ccccc2)NC(=O)[C@H](Cc2ccc(O)cc2)NC(=O)[C@H](C)NC(=O)[C@H](C)NC1=O [AIP-I D1AS6A, A-S-V-(C-A-A-Y-F)] (H-ASVCAAYF; thioester 4-C)
IC50 [3]: 18 nM

KYVPCSNYL [AIP-II 9aa N3V, K-Y-V-P-C-S-N-Y-L]
Mode/strength of activity toward AgrC-II (Group II), in words (AgrC-II): antagonist | potency estimated from few doses (AgrC-II; [6]): 108 nM | Mode/strength of activity toward AgrC-I (Group I), in words (AgrC-I receptor [2]): antagonist | potency estimated from few doses (AgrC-I receptor [4]; [7]): 4.1 nM

CC(=O)N[C@H]1CSC(=O)[C@H](CC(C)C)NC(=O)[C@H](Cc2ccc(O)cc2)NC(=O)[C@H](CC(N)=O)NC(=O)[C@H](CO)NC1=O [tAIP-II, Ac-(C-S-N-Y-L)] (Ac-CSNYL; thioester 1-C)
Activity against Group-III, in words (AgrC-III): inactive | Mode/strength of activity toward AgrC-I (Group I), in words (AgrC-I receptor [2]): dramatic reduction in inhibitory activity

KYNVCSSYL [AIP-II 9aa P4V N7S, K-Y-N-V-C-S-S-Y-L]
potency estimated from few doses (AgrC-II; [6]): 6.5 nM | Mode/strength of activity toward AgrC-I (Group I), in words (AgrC-I receptor [2]): switched; also recorded: antagonist | potency estimated from few doses (AgrC-I receptor [4]; [8]): > 1800 nM

CC(C)[C@@H](NC(=O)[C@H](CO)NC(=O)[C@@H](N)CC(=O)O)C(=O)N[C@H]1CSC(=O)[C@H](Cc2ccccc2)NC(=O)[C@H](Cc2ccc(O)cc2)NC(=O)[C@H](CO)NC(=O)[C@H](C)NC1=O [AIP-I D-V3, D-S-DV-(C-A-S-Y-F)] (H-DS[dV]CASYF; thioester 4-C)
Activity toward Group-II at lower concentration, in words (AgrC-II): remained an antagonist | Activity toward Group-III at lower concentration, in words (AgrC-III): remained an antagonist | Activity toward Group-I at lower concentration, in words (AgrC-I receptor [2]): lost its inhibitory activity

KYNVCSNYL [AIP-II 9aa P4V, K-Y-N-V-C-S-N-Y-L]
potency estimated from few doses (AgrC-II; [9]): 114 nM | Mode/strength of activity toward AgrC-I (Group I), in words (AgrC-I receptor [2]): antagonist | potency estimated from few doses (AgrC-I receptor [4]; [7]): 45 nM

CC(C)C[C@@H]1NC(=O)[C@H](Cc2ccc(O)cc2)NC(=O)[C@H](CC(N)=O)NC(=O)[C@H](CO)NC(=O)[C@@H](NC(=O)[C@@H]2CCCN2C(=O)[C@H](CC(N)=O)NC(=O)[C@@H](N)Cc2ccc(O)cc2)CSC1=O [AIP-II 8aa, Y-N-P-(C-S-N-Y-L)] (H-YNPCSNYL; thioester 4-C)
Activity toward Group-II at lower concentration, in words (AgrC-II): inhibitory activity against Group-II decreased | Activity against Group-III, in words (AgrC-III): inactive | Effect on agr activity in S. aureus Groups-I-IV, in words [5]: without significantly affecting agr activity | Mode/strength of activity toward AgrC-I (Group I), in words (AgrC-I receptor [2]): potency similar to the parent AIP-II | inhibition at 10 µM (AgrC-I receptor [2]; read-out: Inhibition of AgrC-I (inhibiting to ~%)): ~75% | Activity toward Group-I at lower concentration, in words (AgrC-I receptor [2]): remained active; also recorded: selectively inhibited

CC(C)[C@H](NC(=O)[C@H](CO)NC(=O)[C@@H](N)CC(=O)O)C(=O)N[C@H]1CSC(=O)[C@H](Cc2ccccc2)NC(=O)[C@H](Cc2ccc(O)cc2)NC(=O)[C@H](CO)NC(=O)[C@H](C)NC1=O [AIP-I, D-S-V-(C-A-S-Y-F), reference compound] (H-DSVCASYF; thioester 4-C)
IC50 [3]: 99 nM

I-N-(C-A-F-L-L) (INCAFLL; bridge 3-C; also: thiolactone between Cys3 side chain and C-terminus) [S. aureus AIP-III D4A, reference compound]
Activity toward Group-II at lower concentration, in words (AgrC-II): inhibiting exclusively Group-II | Effect on agr activity in S. aureus Groups-I-IV, in words [5]: potent pan-group inhibitor | EC50 in AgrC-I (AgrC-I receptor [2]; activation dose response in the presence of 50 nM S. epidermidis AIP-II): Inactive^c | IC50 in AgrC-I (AgrC-I receptor [2]; antagonism dose response, peptide alone, Group-I GFP reporter strain, 24 h): Inactive^c | Mode/strength of activity toward AgrC-I (Group I), in words (AgrC-I receptor [2]): largely inactive | Activity toward Group-I at lower concentration, in words (AgrC-I receptor [2]): inactive

KYNVCANYL [AIP-II 9aa P4V S6A, K-Y-N-V-C-A-N-Y-L]
potency estimated from few doses (AgrC-II; [9]): > 7000 nM | Mode/strength of activity toward AgrC-I (Group I), in words (AgrC-I receptor [2]): inactive

CC(C)C[C@@H]1NC(=O)[C@H](CO)NC(=O)[C@H](CO)NC(=O)[C@@H](NC(=O)[C@H](C)NC(=O)[C@H](CC(N)=O)NC(=O)[C@@H](NC(=O)CN)C(C)C)CSC(=O)[C@H](Cc2ccccc2)NC1=O [S. aureus AIP-II, G-V-N-A-(C-S-S-L-F), reference compound] (H-GVNACSSLF; thioester 5-C)
Mode/strength of activity toward AgrC-I (Group I), in words (AgrC-I receptor [2]): relatively strong AgrC-I antagonist

KYNVCSAYL [AIP-II 9aa P4V N7A, K-Y-N-V-C-S-A-Y-L]
potency estimated from few doses (AgrC-II; [9]): > 600 nM | Mode/strength of activity toward AgrC-I (Group I), in words (AgrC-I receptor [2]): activating; also recorded: agonist | potency estimated from few doses (AgrC-I receptor [4]; [8]): > 1200 nM

C[C@H](N)C(=O)N[C@@H](CO)C(=O)N[C@@H](C)C(=O)N[C@H]1CSC(=O)[C@H](Cc2ccccc2)NC(=O)[C@H](Cc2ccc(O)cc2)NC(=O)[C@H](C)NC(=O)[C@H](CO)NC1=O [AIP-I D1AS6AV3AA5S, A-S-A-(C-S-A-Y-F)] (H-ASACSAYF; thioester 4-C)
IC50 against AgrC-II, in words (AgrC-II): subnanomolar to low nanomolar range | Activity toward Group-II at lower concentration, in words (AgrC-II): strongly inhibited | IC50 against AgrC-III, in words (AgrC-III): subnanomolar to low nanomolar range | Activity toward Group-III at lower concentration, in words (AgrC-III): strongly inhibited | Mode/strength of activity toward AgrC-I (Group I), in words (AgrC-I receptor [2]): analogous potency as the parent triple mutant | Effect on biofilm growth, in words ([3]; 10 μM, 24 h): did not increase biofilm growth

KYLPCSNYL [AIP-II 9aa N3L, K-Y-L-P-C-S-N-Y-L]
Mode/strength of activity toward AgrC-II (Group II), in words (AgrC-II): antagonist | potency estimated from few doses (AgrC-II; [6]): 70.7 nM | Mode/strength of activity toward AgrC-I (Group I), in words (AgrC-I receptor [2]): antagonist | potency estimated from few doses (AgrC-I receptor [4]; [7]): 9.4 nM
